Test results: the supplement of paper PMC8882468
± gives the standard deviation of the averaged measurements.

Assays:
Experiment in all cases: CTG-3D luminescence at 96 h relative to day-0 seeding control (ratio to day 0); higher = more growth / less cytotoxicity
HCI-005.E2 = tested on: HCI-005.E2 (organoid from a breast cancer xenograft with a HER2-positive history)
Experimental: (§1)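 PDX-derived breast cancer organoids (PDxO) in 384-well Matrigel plates, 8-point dose (0.000000625-100 uM), 96 h at 37 C; CellTiter-Glo 3D luminescence normalised to the day-0 seeding control (mean of 4 technical replicates over mean of 4 day-0 wells).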

HCI-027 = tested on: HCI-027 (organoid from a triple-negative breast cancer xenograft)
Experimental: as §1

HCI-012 = tested on: HCI-012 (organoid from a breast cancer xenograft)
Experimental: as §1

HCI-023 = tested on: HCI-023 (organoid from a triple-negative breast cancer xenograft)
Experimental: as §1

HCI-019 = tested on: HCI-019 (organoid from a triple-negative breast cancer xenograft)
Experimental: as §1

HCI-017.E2 = tested on: HCI-017.E2 (organoid from an ER-positive breast cancer xenograft)
Experimental: as §1

HCI-016 = tested on: HCI-016 (organoid from a triple-negative breast cancer xenograft)
Experimental: as §1

O=c1[nH]cc(F)c(=O)[nH]1 [5-fluorouracil]
CTG-3D luminescence at 96 h
Settings	12.5 pM	0.00025 µM	0.005 µM	0.1 µM	1 µM	10 µM	100 µM	625 fM
HCI-005.E2	1.91 ± 0.23	1.66 ± 0.53	1.64 ± 0.57	2.48 ± 0.61	1.78 ± 0.58	1.18 ± 0.25	0.891 ± 0.1	1.69 ± 0.15
HCI-017.E2	1.94 ± 0.43	2.02 ± 0.06	1.96 ± 0.33	2.04 ± 0.22	2.05 ± 0.042	1.88 ± 0.088	1.64 ± 0.33	2.219 ± 0.0082

CTG-3D luminescence at 96 h
Settings	12.5 pM	0.00025 µM	0.005 µM	0.1 µM	1 µM	10 µM	100 µM	625 fM
HCI-012, days in culture: 143	2.31	2.12	1.8	2.12	2.07	1.71	0.413	1.96
HCI-012, days in culture: 162	2.26	2.44	1.98	2.86	1.98	2.16	0.425	2.74
HCI-012, days in culture: 201	2.32	2.31	1.56	1.69	2.12	1.21	1.08	1.85
HCI-016, days in culture: 153	3.47	1.65	2.39	2.02	2.17	1.8	1.21	3.05
HCI-016, days in culture: 172	2.33	1.93	1.51	1.52	1.52	1.1	1.12	1.92
HCI-016, days in culture: 190	1.67	1.39	1.63	1.35	1.16	1.1	1.11	1.3
HCI-016, days in culture: 199	1.49	1.49	1.44	1.47	1.68	1.21	1.18	1.73
HCI-017.E2, days in culture: 85	2.76	2.47	2.46	2.16	2.41	1.85	1.6	2.21
HCI-019, days in culture: 110	2.01	1.66	1.28	2.55	1.05	2.15	1.45	2.02
HCI-019, days in culture: 131	2.46	3.61	3.38	4.08	2.65	2.93	1.89	3.71
HCI-019, days in culture: 152	2.48	2.79	2.59	1.85	1.99	2.54	1.96	2.62
HCI-023, days in culture: 111	1.56	1.34	0.973	1.17	0.928	0.875	0.571	1.57
HCI-023, days in culture: 128	1.51 ± 0.11	1.68 ± 0.4	1.54 ± 0.13	1.89 ± 0.27	1.4 ± 0.022	1.92 ± 0.27	1.01 ± 0.18	1.58 ± 0.063
HCI-027, days in culture: 176	2.05	1.56	2.56	1.65	2.29	0.753	0.527	1.98
HCI-027, days in culture: 194	1.69	1.22	1.34	1.6	1.41	1.29	0.526	1.51
HCI-027, days in culture: 201	1.96	1.99	2.23	1.8	1.26	1.05	0.398	1.53
